The results in this text go back to US20230338370A1, “Treatment of Cancer with TOR Kinase Inhibitors” (Signal Pharmaceuticals, LLC, priority 2012, published 2023).

SMILES strings stand for the structures. Some results are limits rather than exact numbers.

For one assay, the system named is BT-20. In words: Apoptosis assay for BC Cell lines (Caspase 3/7-Glo). The following applies: BT-20, TN; 24 hours. The class given is cell-based. As to the method: (§1) Apoptosis assay for BC Cell lines. Prior to testing, cells were grown and expanded in culture flasks to provide sufficient amounts of starting material. Cells were then diluted to their desired densities and added directly to compound-spotted 384-well plates. Cells were allowed to grow for 24 hours in 5% CO2 at 37° C. The apoptotic response was assessed by quantifying the activities of caspase 3 and caspase 7 (Caspase 3/7-Glo) in treated cells and control cells at the 24-hour time point. All data was normalized and represented as a value relative to the DMSO-treated cells. Results were then expressed as CalX, which is the minimum compound concentration required to double the levels of caspase 3/7 relative to those of the DMSO-treated cells during their treatment period.

The subject of a further assay is BT-549. The assay is described as above. In kind it is cell-based. The following applies: BT-549, TN; 24 hours. As to the method:
as §1

The next assay relates to CAL-120. The description is as above. In kind it is cell-based. The following applies: CAL-120, TN; 24 hours. The protocol: as §1
The test system of another assay is CAL-148. Described as above. The class given is cell-based. The following applies: CAL-148, TN; 24 hours. The protocol: as §1
The test system of the next assay is CAL-51. Described as above. The conditions noted are these: CAL-51, TN; 24 hours. In kind it is cell-based. As to the method: as §1
In the next assay the test system is CAL-85-1. Described as above. In kind it is cell-based. The conditions noted are these: CAL-85-1, TN; 24 hours. The protocol: as §1
The next assay concerns DU4475. Described as above. In kind it is cell-based. The following applies: DU4475, TN; 24 hours. As to the method: as §1
A further assay concerns HCC1143. The description is as above. The class given is cell-based. The conditions noted are these: HCC1143, TN; 24 hours. The protocol:
as §1

A further assay has as its system HCC1187. Described as above. In kind it is cell-based. The conditions noted are these: HCC1187, TN; 24 hours. As to the method:
as §1

The subject of another assay is HCC1806. The assay is described as above. The class given is cell-based. The following applies: HCC1806, TN; 24 hours. The protocol: as §1
For a further assay, the system named is HCC1937. The description is as above. The class given is cell-based. The conditions noted are these: HCC1937, TN; 24 hours. As to the method:
as §1

The subject of the next assay is HCC2157. Described as above. In kind it is cell-based. The following applies: HCC2157, TN; 24 hours. As to the method: as §1
The next assay relates to HCC38. The description is as above. The conditions noted are these: HCC38, TN; 24 hours. In kind it is cell-based. The protocol: as §1
Another assay concerns HCC70. Described as above. In kind it is cell-based. The following applies: HCC70, TN; 24 hours. The protocol:
as §1

For another assay, the system named is HDQ-P1. Described as above. In kind it is cell-based. The conditions noted are these: HDQ-P1, TN; 24 hours. The protocol:
as §1

A further assay has as its system HS578T. The description is as above. The following applies: TN, 24 hours. The class given is cell-based. As to the method:
as §1

In a further assay the test system is MB157. Described as above. The class given is cell-based. The following applies: MB157, TN; 24 hours. The protocol:
as §1

For the next assay, the system named is MDA-MB-157. The description is as above. The following applies: MDA-MB-157, TN; 24 hours. In kind it is cell-based. The protocol:
as §1

In the next assay the test system is MDA-MB-231. The assay is described as above. The conditions noted are these: MDA-MB-231, TN; 24 hours. The class given is cell-based. As to the method:
as §1

The next assay concerns MDA-MB-436. The assay is described as above. In kind it is cell-based. The conditions noted are these: MDA-MB-436, TN; 24 hours. As to the method: as §1
A further assay concerns MDA-MB-468. Described as above. In kind it is cell-based. The conditions noted are these: MDA-MB-468, TN; 24 hours. As to the method: as §1
A further assay deals with MT-3. The assay is described as above. The class given is cell-based. The following applies: MT-3, TN; 24 hours. As to the method: as §1
Another assay deals with MDA-MB-231 tumors. In words: MDA-MB-231 Triple Negative (TN) Breast Cancer Model (xenograft). The class given is in vivo. The following applies: nude mice, subcutaneous MDA-MB-231 xenograft; oral QD for up to 26 days, 1 to 5 mg/kg. The protocol: A xenograft study was conducted with MDA-MB-231 tumor-bearing mice. Nude mice were inoculated subcutaneously with MDA-MB-231 cells in the flank region above the right hind leg. Following inoculation of animals, the tumors were allowed to grow to about 150 mm^3 prior to randomization. On Day 38 following tumor cell inoculation, the mice bearing MDA-MB-231 tumors ranging between 65 and 304 mm^3 were pooled together and randomized into various treatment groups. […] The positive control Taxotere (15 mg/kg, Q4D) was administered via the intravenous (IV) route. Taxotere was diluted in saline. Tumors were measured twice a week using calipers and tumor volumes were calculated using the formula of W2 × L / 2 (wherein “W” is tumor width and “L” is tumor length).

With `CCN1C(=O)CNc2ncc(-c3ccc(-c4nc[nH]n4)nc3C)nc21` [Compound 1, 1-ethyl-7-(2-methyl-6-(1H-1,2,4-triazol-3-yl)pyridin-3-yl)-3,4-dihydropyrazino[2,3-b]pyrazin-2(1H)-one], the “CalX (minimum compound concentration required to double the levels of caspase 3/7)” value (“CalX” below) is recorded as 0.6025 µM in the assay on BT-20; at least 10 µM in the assay with BT-549; at least 10 µM in the assay on CAL-120; 0.1583 µM with CAL-148; 0.3611 µM in the assay with CAL-51; at least 10 µM in the assay with CAL-85-1. Besides, the “CalX” value is 0.9448 µM in the assay with DU4475; at least 10 µM in the assay with HCC1143; 0.6418 µM in the assay with HCC1187; at least 10 µM in the assay on HCC1806; at least 10 µM in the assay with HCC1937; 1.3472 µM in the assay on HCC2157. Besides, the “CalX” value in the assay with HCC38, with HCC70, in the assay with HDQ-P1, in the assay on HS578T, in the assay on MB157 and in the assay on MDA-MB-157 was at least 10 µM each time. Besides, the “CalX” value in the assay on MDA-MB-231 is given as at least 10 µM; in the assay on MDA-MB-436, at least 10 µM; in the assay with MDA-MB-468, at least 10 µM; in the assay on MT-3, 2.4106 µM. The tumor growth result in the assay with MDA-MB-231 tumors was “inhibited MDA-MB-231 breast cancer tumor growth”.
